In one assay the target is T1, KDM4C (Homo sapiens, UniProt Q9H3R0).
T1 sequence (Q9H3R0 1-1056): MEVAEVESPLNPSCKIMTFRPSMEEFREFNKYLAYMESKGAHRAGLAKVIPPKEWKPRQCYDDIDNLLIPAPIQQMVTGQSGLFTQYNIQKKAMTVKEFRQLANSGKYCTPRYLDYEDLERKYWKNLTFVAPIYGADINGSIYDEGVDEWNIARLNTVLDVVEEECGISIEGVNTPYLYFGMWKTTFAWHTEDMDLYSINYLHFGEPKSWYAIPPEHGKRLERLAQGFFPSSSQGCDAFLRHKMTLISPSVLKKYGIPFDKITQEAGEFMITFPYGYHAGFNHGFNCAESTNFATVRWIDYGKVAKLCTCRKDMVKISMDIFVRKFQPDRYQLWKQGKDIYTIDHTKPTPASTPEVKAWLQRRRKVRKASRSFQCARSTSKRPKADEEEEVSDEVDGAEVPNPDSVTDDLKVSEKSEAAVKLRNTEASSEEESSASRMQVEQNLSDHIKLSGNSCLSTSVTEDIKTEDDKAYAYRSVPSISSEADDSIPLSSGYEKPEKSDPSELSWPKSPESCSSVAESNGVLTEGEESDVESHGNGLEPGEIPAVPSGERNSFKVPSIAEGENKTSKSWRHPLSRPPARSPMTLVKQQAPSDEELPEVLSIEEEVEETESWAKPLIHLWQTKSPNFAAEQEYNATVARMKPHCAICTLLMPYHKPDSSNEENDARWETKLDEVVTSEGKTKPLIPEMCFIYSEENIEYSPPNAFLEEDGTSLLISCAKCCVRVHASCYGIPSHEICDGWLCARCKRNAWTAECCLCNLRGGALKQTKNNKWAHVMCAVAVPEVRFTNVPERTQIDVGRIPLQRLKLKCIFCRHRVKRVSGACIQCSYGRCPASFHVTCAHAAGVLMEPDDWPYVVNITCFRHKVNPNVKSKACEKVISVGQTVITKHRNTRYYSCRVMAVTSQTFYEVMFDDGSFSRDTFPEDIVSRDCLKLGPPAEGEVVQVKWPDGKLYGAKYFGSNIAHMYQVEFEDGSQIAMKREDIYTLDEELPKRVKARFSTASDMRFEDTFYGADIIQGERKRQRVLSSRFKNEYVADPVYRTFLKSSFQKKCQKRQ
The assay is described as follows: Biochemical KDM inhibition assay (LANCE), KDM4C. Particulars: read-out: Biochemical IC50 KDM 4C.

For the next assay, the target named is T2, KDM5C (Homo sapiens, UniProt P41229).
T2 construct: host or cells: Sf9 cells
T2 sequence (P41229 whole entry): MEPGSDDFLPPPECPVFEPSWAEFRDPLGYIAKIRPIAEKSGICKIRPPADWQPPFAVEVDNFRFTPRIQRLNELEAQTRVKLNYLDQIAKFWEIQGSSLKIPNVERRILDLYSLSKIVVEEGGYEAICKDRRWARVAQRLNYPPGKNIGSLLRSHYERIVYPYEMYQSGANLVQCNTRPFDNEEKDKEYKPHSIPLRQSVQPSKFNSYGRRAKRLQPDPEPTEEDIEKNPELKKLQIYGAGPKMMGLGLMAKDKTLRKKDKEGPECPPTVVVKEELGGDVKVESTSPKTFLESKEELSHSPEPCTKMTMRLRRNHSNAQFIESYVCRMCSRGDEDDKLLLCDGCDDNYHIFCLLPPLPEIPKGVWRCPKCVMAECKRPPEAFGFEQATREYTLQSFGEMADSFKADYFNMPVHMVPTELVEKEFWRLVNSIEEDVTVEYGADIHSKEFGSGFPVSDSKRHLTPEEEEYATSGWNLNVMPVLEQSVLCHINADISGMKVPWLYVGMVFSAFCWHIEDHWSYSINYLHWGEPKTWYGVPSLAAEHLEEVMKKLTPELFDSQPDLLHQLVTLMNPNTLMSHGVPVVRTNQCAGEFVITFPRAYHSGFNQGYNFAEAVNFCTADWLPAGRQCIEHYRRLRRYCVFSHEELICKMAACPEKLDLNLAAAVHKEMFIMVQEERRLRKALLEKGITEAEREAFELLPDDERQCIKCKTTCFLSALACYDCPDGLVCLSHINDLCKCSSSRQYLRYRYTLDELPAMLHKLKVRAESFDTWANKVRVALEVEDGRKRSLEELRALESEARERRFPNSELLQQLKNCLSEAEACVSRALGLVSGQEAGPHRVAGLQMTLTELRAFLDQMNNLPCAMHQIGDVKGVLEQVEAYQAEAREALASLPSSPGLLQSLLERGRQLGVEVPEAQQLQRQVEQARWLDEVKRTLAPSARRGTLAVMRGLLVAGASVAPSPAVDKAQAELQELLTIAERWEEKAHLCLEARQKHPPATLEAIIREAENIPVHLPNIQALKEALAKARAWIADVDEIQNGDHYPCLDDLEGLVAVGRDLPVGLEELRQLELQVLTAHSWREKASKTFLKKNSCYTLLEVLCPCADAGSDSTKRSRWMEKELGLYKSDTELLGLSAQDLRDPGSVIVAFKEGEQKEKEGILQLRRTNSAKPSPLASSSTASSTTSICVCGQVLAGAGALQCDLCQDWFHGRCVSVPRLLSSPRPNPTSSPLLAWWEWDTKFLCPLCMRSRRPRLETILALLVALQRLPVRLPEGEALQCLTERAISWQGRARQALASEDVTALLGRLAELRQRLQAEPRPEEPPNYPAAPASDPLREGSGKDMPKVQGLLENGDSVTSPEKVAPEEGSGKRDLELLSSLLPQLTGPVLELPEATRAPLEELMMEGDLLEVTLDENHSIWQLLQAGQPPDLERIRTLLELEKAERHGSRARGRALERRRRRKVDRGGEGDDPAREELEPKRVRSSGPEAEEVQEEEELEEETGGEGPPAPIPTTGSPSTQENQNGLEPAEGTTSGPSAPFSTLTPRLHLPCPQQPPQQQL
In words: Biochemical KDM inhibition assay (LANCE), KDM5C. Particulars: read-out: Biochemical IC50 KDM 5C. The procedure:
(§1) Representative compounds were characterized for their inhibition of KDM5 using biotinylated histone substrates. Inhibition was measured in vitro (CEREP Poitier, Le Bois l'Evêque, France) following experimental conditions described in Table 2. Briefly, the test compound, reference compound or water (control) was mixed with about 2-20 ng of recombinant, Human enzymes expressed in Sf9 cells in a buffer containing 45 mM Hepes/Tris (pH 7), 5 μM FAS, 100 μM ascorbic acid, 10 μM 2-oxoglutarate, 0.01% Tween 20 and 0.01% BSA. Thereafter, the reaction was initiated by adding the biotin-labeled substrate, and the mixture was incubated for 10-30 min at room temperature. For basal control measurements, the enzyme was omitted from the reaction mixture. Following incubation the reaction was stopped by adding 1 mM EDTA. After 5 min, the anti-methyl histone antibody labeled with europium chelate and the Ulight streptavidine (Perkin Elmer Waltham, Mass.) were added. After 60 min more, the fluorescence transfer was measured at λex=320 nm and λem=620 and λem=665 nm using a microplate reader (Envision, Perkin Elmer) (LANCE). The enzyme activity was determined by dividing the signal measured at λem=665 nm by that measured at 620 nm (ratio).

In a further assay the target is T3, KDM6B (Homo sapiens, UniProt O15054).
T3 construct: host or cells: Sf9 cells
T3 sequence (O15054 whole entry): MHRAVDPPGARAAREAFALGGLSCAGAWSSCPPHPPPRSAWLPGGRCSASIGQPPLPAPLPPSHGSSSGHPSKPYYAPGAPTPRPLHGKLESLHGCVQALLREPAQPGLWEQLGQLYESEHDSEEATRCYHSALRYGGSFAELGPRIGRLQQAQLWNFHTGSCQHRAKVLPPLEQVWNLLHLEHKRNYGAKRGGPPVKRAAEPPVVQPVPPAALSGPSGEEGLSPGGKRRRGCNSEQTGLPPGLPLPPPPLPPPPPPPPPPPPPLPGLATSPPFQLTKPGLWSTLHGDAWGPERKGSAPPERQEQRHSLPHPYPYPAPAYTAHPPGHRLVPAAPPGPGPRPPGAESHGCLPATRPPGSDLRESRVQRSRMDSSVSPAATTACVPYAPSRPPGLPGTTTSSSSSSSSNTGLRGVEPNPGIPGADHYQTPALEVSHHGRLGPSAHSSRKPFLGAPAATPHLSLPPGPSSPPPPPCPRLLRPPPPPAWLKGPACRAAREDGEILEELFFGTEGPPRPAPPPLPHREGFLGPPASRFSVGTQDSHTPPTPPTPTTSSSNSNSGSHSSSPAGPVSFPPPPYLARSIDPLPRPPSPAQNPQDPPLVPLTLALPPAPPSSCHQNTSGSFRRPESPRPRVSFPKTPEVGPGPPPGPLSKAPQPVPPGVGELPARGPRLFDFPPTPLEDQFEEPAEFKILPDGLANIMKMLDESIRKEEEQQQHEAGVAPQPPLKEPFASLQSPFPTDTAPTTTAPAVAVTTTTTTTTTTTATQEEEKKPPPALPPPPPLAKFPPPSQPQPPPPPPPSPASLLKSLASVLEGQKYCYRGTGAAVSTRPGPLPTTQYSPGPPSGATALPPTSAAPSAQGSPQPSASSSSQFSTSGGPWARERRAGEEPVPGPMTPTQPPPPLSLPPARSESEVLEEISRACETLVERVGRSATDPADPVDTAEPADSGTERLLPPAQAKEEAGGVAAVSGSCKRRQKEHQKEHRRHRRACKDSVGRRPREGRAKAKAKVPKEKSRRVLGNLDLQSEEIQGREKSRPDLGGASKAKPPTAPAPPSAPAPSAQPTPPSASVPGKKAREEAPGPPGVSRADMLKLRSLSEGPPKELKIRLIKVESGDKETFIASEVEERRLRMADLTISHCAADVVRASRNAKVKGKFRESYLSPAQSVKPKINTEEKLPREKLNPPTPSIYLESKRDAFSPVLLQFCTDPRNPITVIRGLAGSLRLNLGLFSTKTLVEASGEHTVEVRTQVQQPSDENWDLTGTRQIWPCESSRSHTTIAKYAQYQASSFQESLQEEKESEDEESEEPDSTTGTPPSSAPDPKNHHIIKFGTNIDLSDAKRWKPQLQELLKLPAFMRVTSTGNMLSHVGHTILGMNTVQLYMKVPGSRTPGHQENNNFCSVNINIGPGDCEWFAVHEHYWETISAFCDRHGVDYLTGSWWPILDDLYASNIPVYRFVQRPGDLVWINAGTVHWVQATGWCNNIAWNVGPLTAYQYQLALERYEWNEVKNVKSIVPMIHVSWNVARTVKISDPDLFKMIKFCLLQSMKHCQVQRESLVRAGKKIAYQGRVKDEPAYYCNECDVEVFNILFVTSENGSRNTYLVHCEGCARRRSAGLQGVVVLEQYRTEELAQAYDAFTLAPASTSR
In words: Biochemical KDM inhibition assay (LANCE), KDM6B. Conditions: read-out: Biochemical IC50 KDM 6B. The procedure:
as §1

The target of another assay is KDM5A (Homo sapiens, UniProt P29375). The assay is described as follows: Biochemical KDM inhibition assay (LANCE), KDM5A. Particulars: read-out: Biochemical IC50 KDM 5A. How it is done: as §1
The target of another assay is T4, KDM5B (Homo sapiens, UniProt Q9UGL1).
T4 construct: host or cells: Sf9 cells
T4 sequence (Q9UGL1 whole entry): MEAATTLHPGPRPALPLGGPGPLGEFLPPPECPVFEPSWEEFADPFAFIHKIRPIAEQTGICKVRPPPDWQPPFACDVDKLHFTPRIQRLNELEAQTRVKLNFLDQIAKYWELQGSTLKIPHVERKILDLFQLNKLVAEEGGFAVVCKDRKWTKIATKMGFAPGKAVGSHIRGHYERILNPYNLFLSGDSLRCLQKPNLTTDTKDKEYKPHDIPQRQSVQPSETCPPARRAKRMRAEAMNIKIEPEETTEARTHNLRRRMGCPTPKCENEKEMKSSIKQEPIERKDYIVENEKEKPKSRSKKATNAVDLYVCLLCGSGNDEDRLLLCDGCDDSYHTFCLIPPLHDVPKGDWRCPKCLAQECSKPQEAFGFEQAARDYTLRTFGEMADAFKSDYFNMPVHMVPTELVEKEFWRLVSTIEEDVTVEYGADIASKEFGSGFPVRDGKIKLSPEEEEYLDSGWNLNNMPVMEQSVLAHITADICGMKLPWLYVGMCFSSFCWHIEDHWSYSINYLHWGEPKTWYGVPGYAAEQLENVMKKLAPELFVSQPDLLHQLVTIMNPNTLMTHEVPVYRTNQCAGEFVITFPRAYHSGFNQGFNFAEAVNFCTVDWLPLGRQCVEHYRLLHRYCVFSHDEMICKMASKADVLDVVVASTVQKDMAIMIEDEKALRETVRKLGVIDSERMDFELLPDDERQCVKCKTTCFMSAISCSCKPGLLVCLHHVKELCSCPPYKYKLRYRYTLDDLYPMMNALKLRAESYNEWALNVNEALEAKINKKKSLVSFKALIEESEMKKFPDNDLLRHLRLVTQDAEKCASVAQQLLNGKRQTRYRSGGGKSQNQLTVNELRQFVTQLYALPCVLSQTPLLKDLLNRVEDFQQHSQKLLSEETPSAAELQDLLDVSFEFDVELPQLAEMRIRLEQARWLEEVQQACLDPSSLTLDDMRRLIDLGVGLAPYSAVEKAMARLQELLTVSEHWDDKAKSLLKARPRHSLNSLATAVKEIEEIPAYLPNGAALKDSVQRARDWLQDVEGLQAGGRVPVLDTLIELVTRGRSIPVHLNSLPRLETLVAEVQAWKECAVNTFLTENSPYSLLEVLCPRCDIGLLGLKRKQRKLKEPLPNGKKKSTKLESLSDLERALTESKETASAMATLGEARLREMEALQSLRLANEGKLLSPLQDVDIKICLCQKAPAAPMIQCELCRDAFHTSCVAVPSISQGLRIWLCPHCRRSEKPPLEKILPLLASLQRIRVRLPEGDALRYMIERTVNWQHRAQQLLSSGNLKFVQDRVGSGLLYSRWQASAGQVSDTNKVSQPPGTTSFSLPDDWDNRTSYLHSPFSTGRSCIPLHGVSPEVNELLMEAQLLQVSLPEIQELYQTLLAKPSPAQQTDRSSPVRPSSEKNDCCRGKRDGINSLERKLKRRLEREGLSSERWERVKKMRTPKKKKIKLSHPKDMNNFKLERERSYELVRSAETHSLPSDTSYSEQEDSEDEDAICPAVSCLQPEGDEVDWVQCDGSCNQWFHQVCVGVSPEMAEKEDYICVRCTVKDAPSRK
The assay is described as follows: Biochemical KDM inhibition assay (LANCE), KDM5B. Conditions: read-out: Biochemical IC50 KDM 5B. The procedure:
as §1

Each structure is given as a SMILES string.

Data on six compounds can be found in US20160303095A1, “METHODS OF TREATING HEPATITIS B VIRUS” (Gilead Sciences, Inc., priority 2015, published 2016).

Turning to `Nc1c(C(=O)O)ccnc1C(=O)O` [Example 7, reference compound], the IC50 is 110 nM on KDM4C; 540 nM at KDM5C; 7800 nM on KDM6B; 1200 nM at KDM5A; 510 nM at KDM5B.
As to `CCN(CCN(C)C)C(=O)CNCc1cc(C(=O)O)ccn1` [Example 9], the IC50 on KDM4C was 57 nM; at KDM5C it was 26 nM; on KDM6B, 4100 nM; at KDM5A it was 24 nM; at KDM5B, 14 nM.
Consider `Cc1cc(Cl)ccc1COc1ccnn1-c1cc(C(=O)O)ccn1` [Example 11], for which the IC50 on KDM4C worked out at 110 nM; at KDM5C, 270 nM; on KDM6B, 280 nM; at KDM5A it was 28 nM; on KDM5B, 36 nM.
On the same counts, the results for `O=C(O)c1ccncc1Nc1nn(CCN2CCC(F)(F)CC2)c2ccc(F)cc12` [Example 13] are 260 nM, 86 nM, 400 nM, 21 nM and 21 nM.
In the case of `N#CNC(=O)c1ccncc1Nc1nn(CCN2CCC(F)(F)CC2)c2ccc(F)cc12` [Example 14], the IC50 amounted to 3100 nM on KDM4C, 240 nM on KDM5C, 29 nM on KDM5A and 14 nM at KDM5B.
Take `CCN(CC)CCCCNCc1cc(C(=O)O)ccn1` [Example 18]: the IC50 at KDM4C is 350 nM; at KDM5C, 21 nM; on KDM6B, 27000 nM; on KDM5A it was 11 nM; on KDM5B, 3.1 nM.
